Active and inactive are the calls of the source.

Test [1] can be described thus: Luminescence Cell-Based Dose Response HTS to Identify Activators of Luciferase Translation or Activity in H4 […] Cells. [Related pubchem assays: 1829 (Project Summary), 1814 (Primary HTS)]. Type of test: functional.
Test [2] in a line: Luminescence Cell-Based Dose Confirmation HTS to Identify Activators of 5'UTR Stem-Loop Driven Alpha-Synuclein mRNA Translation in H4 Neuroglioblastoma Cells. [Related pubchem assays: 1829 (Project Summary), 1814 (Primary HTS)]. Type of test: functional.
The subject of another test is H4. Kind of test: Luminescence Cell-Based Dose Response HTS to Identify Activators of 5'UTR Stem-Loop Driven Prion Protein mRNA Translation in H4 Neuroglioblastoma Cells. [Related pubchem assays: 1829 (Project Summary), 1814 (Primary HTS)]. It counts as functional. Conditions: Homo sapiens.
The nature of test [3]: inhibitors of firefly luciferase expression or activity, dose response, H4 neuroglioma cells, luminescence (AID 1990). Type of test: functional, cell-based.
Test [4] in a line: inhibitors of SNCA 5'UTR-driven reporter translation, confirmation, H4 neuroglioma cells, luminescence (AID 1988). Type of test: functional, cell-based.
Test [5] can be described thus: Luminescence Cell-Based Dose Response HTS to Identify Inhibitors of 5'UTR Stem-Loop Driven Prion Protein mRNA Translation in H4 Neuroglioblastoma Cells. [Related pubchem assays: 1827 (Project Summary), 1813 (Primary HTS)]. It counts as functional.
Another test addresses T1, Cytochrome P450 1A2 (Homo sapiens, UniProt P05177).
T1 sequence (P05177 whole entry): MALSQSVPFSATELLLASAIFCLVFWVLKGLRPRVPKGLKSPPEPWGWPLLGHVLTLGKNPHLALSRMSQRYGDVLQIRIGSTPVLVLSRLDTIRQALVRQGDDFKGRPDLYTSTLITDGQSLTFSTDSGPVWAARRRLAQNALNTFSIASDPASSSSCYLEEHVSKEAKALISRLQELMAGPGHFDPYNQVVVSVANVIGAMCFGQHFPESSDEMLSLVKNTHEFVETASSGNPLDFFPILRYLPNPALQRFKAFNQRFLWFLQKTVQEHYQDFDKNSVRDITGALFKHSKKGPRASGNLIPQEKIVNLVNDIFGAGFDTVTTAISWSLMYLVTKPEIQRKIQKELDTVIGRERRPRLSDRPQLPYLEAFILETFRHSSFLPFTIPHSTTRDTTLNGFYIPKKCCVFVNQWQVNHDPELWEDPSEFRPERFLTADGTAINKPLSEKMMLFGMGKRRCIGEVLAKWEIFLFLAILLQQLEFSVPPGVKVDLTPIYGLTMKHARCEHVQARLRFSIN

A further test addresses Cytochrome P450 2C9 (Homo sapiens, UniProt P11712).
For another test, the target named is Cytochrome P450 2C19 (Homo sapiens, UniProt P33261). Briefly: Cytochrome panel assay with activity outcomes. Panel member name: p450-cyp2c19 Compounds with AC50 equal or less than 10 uM are considered active. Type of test: functional. Conditions: read-out: AC50.
For a further test, the target named is Cytochrome P450 3A4 (Homo sapiens, UniProt P08684).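 Also: CYP3A4 tested as one member of a cytochrome P450 panel screen.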
Test [6] has as its system Streptococcus sp. 'group A'. Briefly: growth inhibition of control SK(-) GAS strain, dose response, counter-screen for streptokinase expression inhibitor project, luminescence, kanamycin, BacTiterGlo, confirmation (AID 1900). It counts as functional, organism-based.
For the next test, the system named is Streptococcus. Kind of test: Group A Streptococcus viability loss, dose response, counter-screen for streptokinase expression inhibitor project, luminescence, BacTiterGlo (AID 1915).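 Also: potency for reduction of bacterial viability or growth.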 Type of test: functional, organism-based. On the technique in general: The purpose of a counterscreen is to sort out artefacts and off-target activity.
For another test, the target named is T2, Streptokinase A (Streptococcus pyogenes serotype M1, UniProt P10520).
T2 sequence (P10520 whole entry): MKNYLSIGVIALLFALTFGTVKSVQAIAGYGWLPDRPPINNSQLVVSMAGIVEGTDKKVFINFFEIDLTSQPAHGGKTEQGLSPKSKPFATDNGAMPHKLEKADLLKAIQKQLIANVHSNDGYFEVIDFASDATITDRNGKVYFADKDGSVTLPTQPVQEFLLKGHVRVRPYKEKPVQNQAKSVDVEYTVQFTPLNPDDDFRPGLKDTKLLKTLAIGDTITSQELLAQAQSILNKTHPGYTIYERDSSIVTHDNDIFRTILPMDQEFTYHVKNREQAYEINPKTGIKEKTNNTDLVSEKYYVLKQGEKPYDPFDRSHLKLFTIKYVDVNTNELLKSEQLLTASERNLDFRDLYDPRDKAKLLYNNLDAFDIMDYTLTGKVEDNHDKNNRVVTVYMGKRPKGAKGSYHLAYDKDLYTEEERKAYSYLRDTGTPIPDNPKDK
Briefly: S. pyogenes streptokinase expression inhibitors, potency, dose response, plasminogen activation absorbance, OD405 (AID 1914).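 Also: secreted streptokinase activity via plasminogen activation per viability signal from cell pellet.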 Type of test: functional, Streptococcus pyogenes M1 GAS.

Test [7] is described as follows: inhibitors of intracellular T. cruzi replication, confirmation, NIH3T3 host cells, beta-gal luminescence (AID 2044).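 Also: intracellular parasites grown in NIH/3T3 mouse fibroblasts as host cells; luminescent beta-galactosidase reporter signal from transgenic T. cruzi replicating inside host cells; inhibitors lower the luminescence signal.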 Type of test: functional, cell-based.
The nature of test [8]: cytotoxicity toward NIH3T3 fibroblasts, dose response, counter-screen, cell-based, ATP luminescence, mouse fibroblasts (AID 2010).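 Also: cells exposed to compound for about 90 hours before reading.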 It counts as functional.
In another test the target is Paired box protein Pax-8 (Homo sapiens, UniProt Q06710). Briefly: inhibitors of PAX8-driven TPO luciferase reporter, dose response, RMG-I cells, cherry-pick (AID 687027).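 Also: luciferase reporter driven by Pax8 target thyroperoxidase promoter measured by SteadyGlo luminescence.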 Type of test: functional, cell-based. (In a reporter assay the amount or activity of a reporter protein is the signal.)
For test [9], the target named is T3, Heat shock factor protein 1 (Mus musculus, UniProt P38532).
T3 sequence (P38532 whole entry): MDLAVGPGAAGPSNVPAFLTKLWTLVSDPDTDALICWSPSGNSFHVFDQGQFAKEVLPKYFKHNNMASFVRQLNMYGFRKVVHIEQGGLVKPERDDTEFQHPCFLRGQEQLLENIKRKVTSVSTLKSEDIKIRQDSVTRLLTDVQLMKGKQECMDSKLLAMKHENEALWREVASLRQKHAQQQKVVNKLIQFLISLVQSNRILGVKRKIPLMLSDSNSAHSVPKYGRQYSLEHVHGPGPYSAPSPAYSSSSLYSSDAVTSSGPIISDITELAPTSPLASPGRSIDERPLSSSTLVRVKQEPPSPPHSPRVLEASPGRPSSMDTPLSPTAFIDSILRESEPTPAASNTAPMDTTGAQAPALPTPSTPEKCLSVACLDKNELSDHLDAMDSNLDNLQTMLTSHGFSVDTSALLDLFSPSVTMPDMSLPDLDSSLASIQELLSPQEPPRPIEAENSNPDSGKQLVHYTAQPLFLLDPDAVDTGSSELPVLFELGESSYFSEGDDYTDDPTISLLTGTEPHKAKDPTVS
Kind of test: inhibition of MG132-induced HSE-luciferase signal, confirmation, cell-based, NIH3T3, luminescence, dose retest (AID 2382).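 Also: NIH3T3 fibroblasts with HSF1-driven luciferase reporter stressed by proteasome inhibitor MG132; luminescence from HSF1-driven luciferase expression after 8 hours of MG132 stress.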 It counts as functional.

Chain of Cytochrome P450 3A4 (P08684 whole entry): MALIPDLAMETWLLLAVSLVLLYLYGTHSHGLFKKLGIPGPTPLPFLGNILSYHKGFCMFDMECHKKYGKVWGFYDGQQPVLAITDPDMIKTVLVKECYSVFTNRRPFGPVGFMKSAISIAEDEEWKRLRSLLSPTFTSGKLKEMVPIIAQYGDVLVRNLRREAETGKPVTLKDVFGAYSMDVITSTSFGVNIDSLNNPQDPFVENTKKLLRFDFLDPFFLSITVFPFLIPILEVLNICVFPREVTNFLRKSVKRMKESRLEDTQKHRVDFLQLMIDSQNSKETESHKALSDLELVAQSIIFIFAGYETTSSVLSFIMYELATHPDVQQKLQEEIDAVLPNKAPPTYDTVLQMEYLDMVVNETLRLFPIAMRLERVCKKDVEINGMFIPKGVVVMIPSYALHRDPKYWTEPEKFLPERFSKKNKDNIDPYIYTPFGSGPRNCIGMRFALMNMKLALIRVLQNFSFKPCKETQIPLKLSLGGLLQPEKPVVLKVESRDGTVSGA
Chain of Cytochrome P450 2C9 (P11712 whole entry): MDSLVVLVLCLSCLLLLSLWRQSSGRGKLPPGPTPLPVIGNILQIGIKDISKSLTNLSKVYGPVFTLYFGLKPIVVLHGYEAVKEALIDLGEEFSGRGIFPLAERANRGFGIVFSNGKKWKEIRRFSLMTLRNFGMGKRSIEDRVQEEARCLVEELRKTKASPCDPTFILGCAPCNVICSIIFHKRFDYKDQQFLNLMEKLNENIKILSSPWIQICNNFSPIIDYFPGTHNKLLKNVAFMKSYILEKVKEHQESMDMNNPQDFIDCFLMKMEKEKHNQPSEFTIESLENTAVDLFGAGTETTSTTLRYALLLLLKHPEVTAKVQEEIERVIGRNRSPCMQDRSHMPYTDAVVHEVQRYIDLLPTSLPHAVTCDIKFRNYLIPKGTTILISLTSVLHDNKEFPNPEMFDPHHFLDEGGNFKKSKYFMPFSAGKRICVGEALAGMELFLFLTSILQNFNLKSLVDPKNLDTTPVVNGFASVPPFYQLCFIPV
Chain of Paired box protein Pax-8 (Q06710 whole entry): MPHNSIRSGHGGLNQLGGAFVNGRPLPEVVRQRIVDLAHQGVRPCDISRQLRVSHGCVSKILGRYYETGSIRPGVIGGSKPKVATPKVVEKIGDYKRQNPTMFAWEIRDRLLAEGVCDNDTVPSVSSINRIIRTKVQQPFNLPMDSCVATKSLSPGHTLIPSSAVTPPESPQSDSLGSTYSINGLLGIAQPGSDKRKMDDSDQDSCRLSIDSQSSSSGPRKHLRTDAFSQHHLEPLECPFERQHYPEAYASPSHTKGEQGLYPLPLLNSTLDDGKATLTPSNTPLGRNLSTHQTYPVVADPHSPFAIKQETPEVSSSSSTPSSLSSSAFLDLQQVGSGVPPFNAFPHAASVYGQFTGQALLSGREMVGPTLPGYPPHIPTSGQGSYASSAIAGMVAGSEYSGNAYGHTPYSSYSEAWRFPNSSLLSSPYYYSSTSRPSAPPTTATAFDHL
Chain of Cytochrome P450 2C19 (P33261 whole entry): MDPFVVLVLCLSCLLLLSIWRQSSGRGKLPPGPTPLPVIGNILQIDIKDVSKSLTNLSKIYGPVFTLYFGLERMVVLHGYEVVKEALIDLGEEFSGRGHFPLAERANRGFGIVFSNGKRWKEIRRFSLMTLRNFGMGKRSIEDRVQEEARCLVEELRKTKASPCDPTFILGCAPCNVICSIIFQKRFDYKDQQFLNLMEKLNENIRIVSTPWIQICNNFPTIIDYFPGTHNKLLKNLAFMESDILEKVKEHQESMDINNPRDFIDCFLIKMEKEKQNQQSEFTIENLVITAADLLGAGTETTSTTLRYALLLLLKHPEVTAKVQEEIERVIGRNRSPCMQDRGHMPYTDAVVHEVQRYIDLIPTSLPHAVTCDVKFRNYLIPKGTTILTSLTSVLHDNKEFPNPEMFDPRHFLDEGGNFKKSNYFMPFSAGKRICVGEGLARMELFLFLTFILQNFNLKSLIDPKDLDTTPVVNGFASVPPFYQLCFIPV

What is called EC50 is the midpoint of the concentration-response curve. `O=C(Nc1nnc(-c2ccccc2F)s1)C1CCCO1` (configuration not stated): the EC50 in test [1] is 0.89 µM (active); in test [2], 0.223 µM (active).

Consider `CC(=O)n1c2c(c3ccccc31)OC(N)=C(C#N)C2c1ccc(C(C)C)cc1` (configuration not stated), for which the EC50 in the test with H4 was 16.2 µM (active); in [1], 10 µM (active); in test [2], 11.7 µM (active).

Turning to `O=c1c2c(n3cnnc3n1C1CCCCC1)-c1ccccc1CC21CCCCC1`, the EC50 in [3], in test [4] and in test [5] was > 120 µM (not active) each time.

Consider `CCOC(=O)/C(C#N)=C1/C=CN(c2ccc(C)cc2)C=N1`, for which the results for the EC50 (in the test with H4; in test [1]; in [2]) were 14.8 µM (active), 14.9 µM (active) and > 120 µM (not active), respectively.

For orientation: AC50 means the concentration giving half of the maximal activity seen. With `CCc1ccc(N2C(=O)/C(=C/c3cccs3)N(CC(=O)OC)C2=S)cc1`, the AC50 was 15.8 µM (inconclusive) on Cytochrome P450 1A2, 12.6 µM (inconclusive) on Cytochrome P450 2C9, 3.98 µM (inconclusive) on Cytochrome P450 2C19 and 12.6 µM (inconclusive) on Cytochrome P450 3A4.

With `COCCn1c(=O)c(-c2ccc(F)c(F)c2)nc2cncnc21`, the AC50 on Cytochrome P450 3A4 was 12.6 µM (inconclusive).

For the molecule `Cc1ccc(NC(=O)c2nc[nH]c2C(=O)N[C@@H](C)c2ccccc2)cc1`, the EC50 in test [3] was 17.3 µM (active); in test [6], 1.05 µM (active); in test [4] it was > 120 µM (not active); in [5], > 120 µM (not active); in the test with Streptococcus, 16.9 µM (active); on Streptokinase A it was > 150 µM (not active).

For `O=C(c1ccc(C[S+]([O-])Cc2ccccc2Cl)o1)N1CCN(C2CCCCC2)CC1` (configuration not stated), the EC50 (in the test with H4; in test [1]; in [2]) was > 120 µM (not active) in each case.

Consider `COc1cccc(Cn2c(=O)c(-c3cccc(C#N)c3)nc3cnc(Nc4ccccc4)nc32)c1`, for which the AC50 on Cytochrome P450 3A4 is 0.794 µM (inconclusive).

On to `CCc1ccc2nc(O)c(CN(Cc3ccccc3OC)C(=O)Nc3ccccc3OC)cc2c1`, for which the EC50 was 111 µM (active) in the test with H4; > 120 µM (not active) in [1]; 3 µM (active) in [7]; > 60 µM (not active) in test [8]; 111 µM (active) in test [2].

In the case of `CNS(=O)(=O)c1ccc(NC(=O)c2cnn3c(C(F)F)cc(-c4ccccc4)nc23)cc1`, the EC50 in test [3] was > 120 µM (not active); in test [6] it was 85.3 µM (active); in [4], 12.1 µM (active); in test [5], 31.8 µM (active); in the test on Streptococcus, > 150 µM (not active); at Streptokinase A, > 150 µM (not active).

For the molecule `CCOCC(=O)Nc1c(C(=O)Nc2ccccc2OC)oc2ccccc12`, the AC50 on Cytochrome P450 3A4 was 6.31 µM (inconclusive).

Take `CCCc1cc2c(=O)c(-c3ccc4c(c3)OCCO4)coc2cc1OS(C)(=O)=O`: the EC50 in the test with H4 was > 120 µM (not active); in [1], < 0.195 µM (inconclusive); in test [2] it was 0.103 µM (active).

`C=CCn1c2ccccc2c2nnc(S)nc21`: the EC50 was 17.8 µM (active) in test [3], > 120 µM (not active) in test [4] and > 120 µM (not active) in test [5].

Turning to `Cc1ccc(S(=O)(=O)N(C)C[C@H]2OCCCC[C@@H](C)Oc3ccc(NS(=O)(=O)c4ccc(F)cc4)cc3C(=O)N([C@@H](C)CO)C[C@H]2C)cc1`, the AC50 at Paired box protein Pax-8 was 8.12 µM (active).

With `C/C(CCN1CCCc2nc(C)c(C)cc21)=N\O[C@@H](C)c1cc(-c2c(C)cc(C)cc2C)no1`, at Cytochrome P450 3A4, the AC50 is 5.01 µM (inconclusive).

In the case of `Cc1ccc(C)c(NC(=O)c2cc3ccccn3n2)c1`, the values for the EC50 (with H4; in test [1]; in [2]) were 41.1 µM (active), 0.163 µM (active) and 0.765 µM (active), respectively.

For the molecule `NC[C@](O)(CS(=O)(=O)O)c1ccc(Cl)cc1`, the AC50 on Cytochrome P450 1A2 was 31.6 µM (inconclusive); on Cytochrome P450 3A4, 1 µM (inconclusive).

As to `COc1cc2c(cc1OC)CN(c1ccc3ccccc3n1)CC2`, the EC50 in the test with H4 is 15.9 µM (active); in [1] it was 11.9 µM (active); in test [2], 17 µM (active).

Turning to `Nc1ccc(S(=O)(=O)c2ccc(NC(=O)c3cccnc3)cc2)cc1`, the AC50 was 6.31 µM (inconclusive) on Cytochrome P450 2C9 and 3.16 µM (inconclusive) on Cytochrome P450 3A4.

In the case of `Cc1cc(NC(=O)C2C3C(=O)N(Cc4ccc(Cl)cc4)C(C(=O)NC(C)(C)C)C34C=CC2(C)O4)no1` (configuration not stated), the EC50 in [9] is given as > 195 µM (not active). In addition, the AC50 at Cytochrome P450 3A4 was 25.1 µM (inconclusive).

Regarding `Cc1cccc(-n2ccnc2SCC(=O)Nc2nccs2)c1`, the EC50 is > 120 µM (not active) in the test with H4, 23.4 µM (active) in [1] and 6.34 µM (active) in test [2].

For the molecule `COC(=O)c1nn(-c2cccc(C(F)(F)F)c2)c(=O)cc1Sc1ccccn1`, the EC50 in test [9] was > 195 µM (not active). Moreover, the results for the AC50 at Cytochrome P450 2C9 and on Cytochrome P450 3A4 were 3.98 µM (inconclusive) and 20 µM (inconclusive), respectively.

For the molecule `O=c1c2cc(-c3ccccc3)sc2ncn1-n1cccc1`, the EC50 was 15 µM (active) in the test with H4, 0.674 µM (active) in test [1] and 0.473 µM (active) in test [2].

On to `Cc1cc(C)c2c(N)c(C(=O)Nc3cccc(C)c3C)sc2n1`, for which the EC50 with H4 was > 120 µM (not active); in [1] it was 3.92 µM (active); in [2], > 120 µM (not active).

For `COc1ccnc(N=CNOCc2ccc(C)cc2)c1C#N`, the EC50 in the test on H4 was 55.5 µM (active); in [1], 12.5 µM (active); in test [2], 14.7 µM (active).

For `COc1ccc(NS(=O)(=O)c2cccc(N3CC(=O)C(c4ccccc4)=C3N)c2)cc1`, the EC50 in test [3], in test [4] and in test [5] was > 120 µM (not active) in each case.

With `C[C@H](O)C#Cc1cnc2c(c1)C(=O)N([C@H](C)CO)C[C@H](C)[C@H](CN(C)Cc1ccc(-c3ccccc3)cc1)O2`, the AC50 at Paired box protein Pax-8 is 5.05 µM (active).

(Values after ChEMBL document CHEMBL1201862, “PubChem BioAssay data set” (2004).)
